US20230248626A1, “Compositions Comprising (Bio)-Alkanediols” (Symrise AG, priority 0001, published 2023)
In brackets after ≈: the same amount, converted by molar mass. Read-outs that look alike come from different tables or passages of the source. Each block holds one compound with its values, some of them ahead of it.

Columns and labels:
[1] = tested on: Propionibacterium acnes; assay: MIC test (growth inhibition, 96 well plates, OD); type: cell-based; conditions: Cutibacterium acnes; read-out: Minimum Inhibitory Concentration (MIC)
Description: (§1) The MIC test is a test on growth inhibition. Estimation of Minimum Inhibitory Concentration (MIC) is executed in 96 well plates. Through the comparison of bacterial growth with positive and negative controls via optical density (OD), different concentrations of given test substances are evaluated.
(§2) Bacteria are cultivated under adjusted conditions based on information of the German Collection of Microorganisms and Cell Cultures (DSMZ) and stored in 50% Glycerol prior to use. Afterwards, the following method was applied: Adding growth medium (according to microorganism) to each well of the microplate. Adding the test-substances in different concentrations, positive controls (water controls only with medium) and negative controls (benchmarks according to organism). Adding the microorganism in a concentration of 10^6 CFU/ml (CFU=colony forming units). Incubation of the microplates at appropriate conditions.
(§3) According to resulting growth, substance concentrations are labelled either as inhibiting or not and MIC is defined as the lowest concentration where a complete growth inhibition is visible. Experiments at concentration limits (highest concentration labelled as growth and lowest concentration labelled as inhibiting) are performed at least twice.

[2] = tested on: Escherichia coli; assay: MIC test (growth inhibition, 96 well plates, OD); type: cell-based; conditions: read-out: Minimum Inhibitory Concentration (MIC)
Description: as §1, §2, §3

[3] = tested on: Staphylococcus hominis; assay: MIC test (growth inhibition, 96 well plates, OD); type: cell-based; conditions: read-out: Minimum Inhibitory Concentration (MIC)
Description: as §1, §2, §3

[4] = tested on: Corynebacterium jeikeium; assay: MIC test (growth inhibition, 96 well plates, OD); type: cell-based; conditions: read-out: Minimum Inhibitory Concentration (MIC)
Description: as §1, §2, §3

[5] = tested on: Staphylococcus aureus; assay: MIC test (growth inhibition, 96 well plates, OD); type: cell-based; conditions: read-out: Minimum Inhibitory Concentration (MIC)
Description: as §1, §2, §3

[6] = tested on: Candida albicans; assay: MIC test (growth inhibition, 96 well plates, OD); type: cell-based; conditions: read-out: Minimum Inhibitory Concentration (MIC)
Description: as §1, §2, §3

[7] = tested on: Aspergillus brasiliensis; assay: MIC and Kull synergy index of 1,2-/2,3-alkanediol mixtures; type: cell-based
[8] = Sensory evaluation on the backside of the hand (spreading, fatty/greasy skin feel, absorption), untrained panellists; conditions: for Absorption/remaining residue with alkanediol: scale 1 to 5
Description: For evaluating the sensory behaviour, liquid lipophilic components specified in the following table were blended with 1,2-heptanediol or 2,3-heptanediol or a mixture of 1,2-heptanediol and 2,3-heptanediol or 1,2-octanediol or 2,3-octanediol or a mixture of 1,2-octanediol and 2,3-octanediol (formulation) in a ratio of 85:15 and assessed by untrained panellists in comparison to the liquid lipophilic component without addition of the specified alkanediols (placebo).
The test procedure was carried as follows: For evaluating the sensory behaviour of 1,2-alkanediols and/or 2,3-alkanediols in combination with different liquid lipophilic components, oil components specified in the following table were blended with a 1,2-alkanediol or a 2,3-alkanediol or a mixture including a 1,2-alkanediol and a 2,3-alkanediol in a ratio as specified in Table 53 and assessed by untrained panellists in comparison to the liquid lipophilic component without addition of the 1,2-alkanediol or 2,3-alkanediol or the mixture including a 1,2-alkanediol and 2,3-alkanediol (placebo).
Test Procedure: • Hands were pre-washed with liquid soap by following a defined procedure; 30 μl of corresponding sample was applied on the backside of each hand (randomized); • After 30 s the spreading behaviour of the respective formulation on skin was evaluated versus the respective oil component without 1,2-heptanediol on a scale from 1 to 5 (1=low spreading; 5=high spreading); • The samples were distributed with the fingertips of middle and forefinger with 2×5 cycles; • After 2 minutes, the fatty/greasy skin feel was evaluated on a scale from 1 to 5 (1=low fatty/greasy skin feel; 5=high fatty/greasy skin feel); • Furthermore the applicants were asked to assess the absorption, i.e. the impression of amount of remaining residue on the skin on a scale from 1 to 5 (1=low absorption; 5=high absorption).

[9] = tested on: Candida albicans (CA); assay: Preservation efficacy test (PET), European Pharmacopoeia 5.1.3; type: cell-based
Description: (§4) The preservation efficacy test (PET) was performed in accordance with European Pharmacopoeia § 5.1.3: The test is a reference European Pharmacopoeia method, that is to be used to evaluate the preservation system of a cosmetic or pharmaceutical preparation. The test consists of challenging the preparation under test, with prescribed inoculums of suitable microorganisms. The preservation porperties of the preparation are adequate if, in the conditions of the test, there is a significant fall or no increase, as appropriate, in the number of microorganisms in the inoculated preparations after the time prescribed.
(§5) The test microorganisms which were used, are the following:
(§6) Pseudomonas aeruginosa (PA) (bacterium); Staphylococcus aureus (SA) (bacterium); Escherichia coli (EC) (bacterium); Candida albicans (CA) (yeast); and Aspergillus brasiliensis (AB) (fungus).

[10] = tested on: Escherichia coli (EC); assay: as above; type: cell-based
Description: as §4, §5, §6

[11] = tested on: Staphylococcus aureus (SA); assay: as above; type: cell-based
Description: as §4, §5, §6

[12] = tested on: Aspergillus brasiliensis (AB); assay: as above; type: cell-based
Description: as §4, §5, §6

[13] = tested on: Pseudomonas aeruginosa (PA); assay: as above; type: cell-based
Description: as §4, §5, §6

[14] = tested on: human sebaceous glands; assay: Sebum production of micro-dissected, cultured human sebaceous glands (lipids/proteins after six days); type: cell-based; set-up: sebum reduction: concentration or dose not given beside the values; conditions: compared to untreated control; six days; single donor (FIG. 4)
Description: Additional tests were performed with human sebaceous glands in order to verify the modulatory activity of different 1,2-alkanediols and 2,3-alkanediols on sebum secretion. Several microbial species on the skin are lipid dependent and feed on the human sebum (e.g. Corynebacterium, Propionibacterium). Accordingly, sebum reduction can indirectly support the reduction of microorganisms on the skin and in this way also indirectly support e.g. dandruff or acne reduction.
For these experiments sebaceous glands had been micro-dissected and cultured with medium. The medium without any supplement served as untreated control. Medium with 5 μM Capsaicin served as positive control. Additionally, culture medium was supplemented with different concentrations of alkanediols. After six days the sebaceous glands were collected and lipids and proteins quantified. The total lipid amount being representative of sebum production was obtained by normalizing the quantified lipids upon the quantified proteins (i.e. mg of lipids/mg of proteins).

[15] = single 1,2-alkanediol, read-out: MIC Component A
[16] = blend with Caprylic Capric Triglyceride (CCT) (neutral oil), rows r187-r195, vs without
[17] = blend with Caprylic Capric Triglyceride (CCT) (neutral oil), rows r187-r195

Structure (SMILES): CCCCCCCCCC(O)CO (stereo not drawn) [1,2-undecanediol]
sebum reduction [14]: 44%

Structure (SMILES): CCCCCCCCC(O)C(C)O (stereo not drawn) [2,3-Undecanediol, 2,3-undecanediol]
sebum reduction [14]: more than 50%
MIC [1]: 250 µg/mL (≈ 1330 µM)
MIC [2]: 500 µg/mL (≈ 2660 µM)
MIC [3]: 250 µg/mL (≈ 1330 µM)
MIC [4]: 250 µg/mL (≈ 1330 µM)
MIC [5]: 250 µg/mL (≈ 1330 µM)
MIC [6]: 250 µg/mL (≈ 1330 µM)

Structure (SMILES): CCCC(O)C(C)O (stereo not drawn) [2,3-hexandiol, 2,3-hexanediol]
MIC ([7]; single 2,3-alkanediol, read-out: MIC Component B): 20000 µg/mL
Absorption/remaining residue Delta [8, 16]: 1.8
Absorption/remaining residue with alkanediol [8, 17]: 2.8

Continued, in another order:

MIC [1]: 500 µg/mL (≈ 2870 µM)
MIC [2]: 250 µg/mL (≈ 1430 µM)
MIC [3]: 500 µg/mL (≈ 2870 µM)
MIC [4]: 2500 µg/mL (≈ 14300 µM)
MIC [5]: 250 µg/mL (≈ 1430 µM)
MIC [6]: 250 µg/mL (≈ 1430 µM)
Structure (SMILES): CCCCCCCCC(O)CO (stereo not drawn) [1,2-Decanediol, 1,2-decanediol, reference compound]

MIC [7, 15]: 7500 µg/mL
Absorption/remaining residue Delta [8, 16]: 1.8
Absorption/remaining residue with alkanediol [8, 17]: 2.8
Structure (SMILES): CCCCC(O)CO (stereo not drawn) [1,2-hexanediol]

MIC [7, 15]: 2500 µg/mL
Absorption/remaining residue Delta ([8]; blend with Argan Oil vs without): 1.2
Absorption/remaining residue with alkanediol ([8]; blend with Argan Oil): 2.6
Absorption/remaining residue Delta ([8]; blend with Avocado Oil vs without): 1.2
Absorption/remaining residue with alkanediol ([8]; blend with Avocado Oil): 2.6
Absorption/remaining residue Delta ([8]; blend with Cacao butter vs without): 0.6
Absorption/remaining residue with alkanediol ([8]; blend with Cacao butter): 3
Absorption/remaining residue Delta ([8]; blend with Castor Oil vs without): 1
Absorption/remaining residue with alkanediol ([8]; blend with Castor Oil): 3.4
Absorption/remaining residue Delta ([8]; blend with Coconut Oil vs without): 0.8
Absorption/remaining residue with alkanediol ([8]; blend with Coconut Oil): 3
Absorption/remaining residue Delta ([8]; blend with Grapeseed Oil vs without): 1
Absorption/remaining residue with alkanediol ([8]; blend with Grapeseed Oil): 1.6
Absorption/remaining residue Delta ([8]; blend with Helianthus Annuus (Sunflower) Seed Oil vs without): 1.8
Absorption/remaining residue with alkanediol ([8]; blend with Helianthus Annuus (Sunflower) Seed Oil): 2
Absorption/remaining residue Delta ([8]; blend with Octocrylene (Neo Heliopan 303), vs without): 0.5
Absorption/remaining residue with alkanediol ([8]; blend with Octocrylene (Neo Heliopan 303)): 3.5
Absorption/remaining residue Delta ([8]; blend with Olive Oil vs without): 1.4
Absorption/remaining residue with alkanediol ([8]; blend with Olive Oil): 2.6
MIC [2]: 5000 µg/mL (≈ 34200 µM)
MIC [3]: 5000 µg/mL (≈ 34200 µM)
MIC [4]: 5000 µg/mL (≈ 34200 µM)
MIC [5]: 2500 µg/mL (≈ 17100 µM)
MIC [6]: 2500 µg/mL (≈ 17100 µM)
Structure (SMILES): CCCCCCC(O)CO (stereo not drawn) [1,2-octanediol]
number of microorganisms after 2 days ([9]; 0.1% in wet wipes solution): 4,700,000
number of microorganisms after 7 days ([9]; 0.1% in wet wipes solution): 3,900,000
number of microorganisms after 14 days ([9]; 0.1% in wet wipes solution): 5,800,000
number of microorganisms after 28 days ([9]; 0.1% in wet wipes solution): 9,300,000
number of microorganisms after 2 days ([9]; 0.2% in o/w emulsion): 950,000
number of microorganisms after 7 days ([9]; 0.2% in o/w emulsion): 15,000
number of microorganisms after 14 days ([9]; 0.2% in o/w emulsion): 36
number of microorganisms after 28 days ([9]; 0.2% in o/w emulsion): 1
number of microorganisms after 2 days ([10]; 0.1% in wet wipes solution): 1,300,000
number of microorganisms after 7 days ([10]; 0.1% in wet wipes solution): 3,500,000
number of microorganisms after 14 days ([10]; 0.1% in wet wipes solution): 2,100,000
number of microorganisms after 28 days ([10]; 0.1% in wet wipes solution): 2,300
number of microorganisms after 2 days ([10]; 0.2% in o/w emulsion): 1
number of microorganisms after 7 days ([10]; 0.2% in o/w emulsion): 1
number of microorganisms after 14 days ([10]; 0.2% in o/w emulsion): 1
number of microorganisms after 28 days ([10]; 0.2% in o/w emulsion): 1
number of microorganisms after 2 days ([11]; 0.1% in wet wipes solution): 425
number of microorganisms after 7 days ([11]; 0.1% in wet wipes solution): 50
number of microorganisms after 14 days ([11]; 0.1% in wet wipes solution): 50
number of microorganisms after 28 days ([11]; 0.1% in wet wipes solution): 50
number of microorganisms after 2 days ([11]; 0.2% in o/w emulsion): 1
number of microorganisms after 7 days ([11]; 0.2% in o/w emulsion): 1
number of microorganisms after 14 days ([11]; 0.2% in o/w emulsion): 1
number of microorganisms after 28 days ([11]; 0.2% in o/w emulsion): 1
number of microorganisms after 2 days ([12]; 0.1% in wet wipes solution): 22,000,000
number of microorganisms after 7 days ([12]; 0.1% in wet wipes solution): 8,500,000
number of microorganisms after 14 days ([12]; 0.1% in wet wipes solution): 11,000,000
number of microorganisms after 28 days ([12]; 0.1% in wet wipes solution): 12,000,000
number of microorganisms after 2 days ([12]; 0.2% in o/w emulsion): 2,400,000
number of microorganisms after 7 days ([12]; 0.2% in o/w emulsion): 2,700,000
number of microorganisms after 14 days ([12]; 0.2% in o/w emulsion): 2,100,000
number of microorganisms after 28 days ([12]; 0.2% in o/w emulsion): 1,200,000
number of microorganisms after 2 days ([13]; 0.1% in wet wipes solution): 1,300,000
number of microorganisms after 7 days ([13]; 0.1% in wet wipes solution): 2,500,000
number of microorganisms after 14 days ([13]; 0.1% in wet wipes solution): 750,000
number of microorganisms after 28 days ([13]; 0.1% in wet wipes solution): 350,000
number of microorganisms after 2 days ([13]; 0.2% in o/w emulsion): 1
number of microorganisms after 7 days ([13]; 0.2% in o/w emulsion): 1
number of microorganisms after 14 days ([13]; 0.2% in o/w emulsion): 1
number of microorganisms after 28 days ([13]; 0.2% in o/w emulsion): 1
